Read-outs that look alike come from different tables or passages of the source.
Experiments:
[1] = system: CCRF-CEM human lymphoblastic leukemia cells; assay: In vitro cytotoxicity, XTT assay
CCRF-CEM/Taxol = assay: In vitro cytotoxicity, XTT assay, taxol-resistant subline; settings: for IC50: Homo sapiens, CCRF-CEM, 72 h, read-out: IC50 CCRF-CEM/Taxol, XTT assay, 72-hr incubation; for fold of cross-resistant, CCRF-CEM/Taxol vs IC50 of parent cell line: number in brackets
[2] = system: human mammary carcinoma MX-1 xenograft; assay: Antitumor therapeutic effect in nude mice bearing MX-1 xenograft; assay type: in vivo; settings: for Tumor remission achieved: doses and schedules as in Table 2 (30-150 mg/kg, i.v.); for log cell kill: estimated by Eq. 4 from remission time; for Duration complete remission maintained without relapse: one cycle 5-dose-treatment, 3 out of 3 mice
Experimental: (§1) Athymic nude mice bearing the nu/nu gene were used for human breast tumor MX-1 xenograft (FIGS. 3 and 4) and human brain glioma U87 GM xenograft (FIG. 5). Nude mice were obtained from National Cancer Institute, Frederick, Md. Male mice 6 weeks old or older weighing 22 g or more were used for experiments with subcutaneous tumor inoculation as described previously.^62 Drug was administrated via the tail vein by iv injection. Tumor volumes were assessed by measuring length×width×height (or width) by using caliper. Vehicle used was 20 μL DMSO in 180 μL saline. All animal studies were conducted in accordance with the guidelines of the U.S. National Institutes of Health Guide for the Care and Use of Animals and the protocol approved by the Institutional Animal Care and Use Committee.
(§2) Animals. Athymic nude mice bearing the nu/nu gene were obtained from NCI, Frederick, Md. and used for all human tumor xenografts. Male nude mice 6 weeks or older weighing 20-24 g or more were used. Compounds were administered via the tail vein for i.v. injection or infusion as described previously.^59 A typical formulation for chemotherapeutic studies for each drug was dissolved in DSMO to make a 25 mg/ml fresh solution, 0.4 ml of this solution was mixed with 0.3 ml of Tween 80, plus 1.3 ml to make 2 ml of 5 mg/ml solution. Bolus injection volume was 0.1-0.2 ml per mouse. Tumor volume was assessed by measuring length×width×height (or width) by using a caliper. For tumor-bearing nude mice during the course of the experiment, the body weight refers to total weight minus the weight of the tumor. All animal studies were conducted in accordance with the guidelines for the National Institute of Health Guide for the Care and Use of Animals and the protocol approved by the Institutional Animal Care and Use Committee.
The therapeutic effects of a drug against human tumor xenografts in nude mice, under the optimal therapeutic conditions but without any lethality due to drug toxicity, the following degrees of therapeutic effects are defined and calculated by the following formula:
[formula] • where T0 is the initial tumor size (in mm^3) at beginning of drug treatment; • Tc is tumor size of untreated control group on a given date; and • Tx is tumor size of the drug treated group on a given date.
[formula] • Where T0 and Tx are as specified as above. • Tumor disappearance (complete remission or CR) is defined by the effect where [Tx=0] for a period of time (in days) for a proportion of animals (NCR/N), where N is the total number of animals in the group, and NCR is the number of mice in the group that achieved CR. • Tumor relapse is quantitatively calculated by [The Day tumor relapsed(Drelp)−The Day CR achieved(DCR)] (Eq. 3) • for a proportion of animals (Nrelp/N) where N is the total number of animals in the group, and Nrelp is the number of the mice in the group that relapsed. • The log cell kill (LCK) of the tumor tissue after a given chemotherapy that reached CR is estimated by: LCK=log [2^(Tumor remission in days/Tumor doubling time in days)] (Eq. 4)

MX-1 cells = assay: Inhibition of biosynthesis of DNA, RNA and protein (tracer incorporation); assay type: cell-based, human; settings: for degrees of inhibiting biosynthesis of DNA and RNA, maximized: [3H]thymidine / [3H]adenosine incorporation; for persistence of inhibition of biosynthesis: printed 'over 6-24 hrs'
Experimental: [^3H]Thymidine (1 uCi), [^3H]adenosine (1 μCi) and [^3H]leucine (2 μCi) were used as the tracers for incorporation into DNA, RNA and protein, respectively. […] Incubation was terminated at each time points as indicated. For details of the method see Chou et al. Cancer Research 43: 3074-3079, 1983. […] The half-maximal inhibition was reached within 15-30 min and persisted for over 6-24 hrs.

[3] = system: Human colon carcinoma HCT-116 cells; assay: In vitro cytotoxicity, SRB assay
[4] = system: Human mammary carcinoma (MX-1) tumor cells; assay: In vitro cytotoxicity, SRB assay
[5] = system: human glioma U87 GM s.c. xenograft; assay: Therapeutic effect in nude mice bearing U87 glioma xenograft; assay type: in vivo
Experimental: as §1
The therapeutic effects of N-mustard compounds, BO-1049, 1051 and 1055, against human glioma U87 GM s.c. xenograft in nude mice were given in FIG. 5, A and B. U87 glioma is known to be refractory tumor that can not be effectively treated with cell-cycle specific anti-tumor drugs such as taxol, epothilones, or arabinosylcytosine. However, cell-cycle non-specific drugs such as alkylating agent, cyclophosphamide or BCNU, yields better therapeutic results. […] However, upon 6 days of recession of treatment with BO-1049 or BO-1055, the tumor began to regrow.
as §2

[6] = Homo sapiens, CCRF-CEM, 72 h, read-out: IC50 CCRF-CEM, XTT assay, 72-hr incubation
[7] = Homo sapiens, HCT-116, 72 h, read-out: IC50 HCT-116, SRB assay, 72-hr incubation
[8] = Homo sapiens, 72 h, read-out: IC50 MX-1, SRB assay, 72-hr incubation
[9] = read-out: IC50 CCRF-CEM, XTT assay, 72-hr incubation

## O=C(Nc1ccc(N(CCCl)CCCl)cc1)Nc1c2ccccc2nc2ccccc12 [BO-1034, 1-Acridin-9-yl-3{4-[bis(2-chloroethyl)amino]phenyl}urea]
[1]; [6]
  IC50: 198 nM
CCRF-CEM/Taxol
  IC50: 418 nM
  fold of cross-resistant, CCRF-CEM/Taxol vs IC50 of parent cell line: 2.1 x

## O=C(Nc1ccc(N(CCCl)CCCl)cc1)Nc1cc(CO)cc(Nc2c3ccccc3nc3ccccc23)c1 [BO-1037, 1-[3-(Acridin-9-ylamino)-5-hydroxymethylphenyl]-3-{4-[bis(2-chloroethyl)amino]phenyl}-urea]
[1]; [6]
  IC50: 54.5 nM
[2]
  Tumor remission achieved: CR in parts of the mice

## Cc1cc(NC(=O)Nc2ccc(N(CCCl)CCCl)cc2)c2ccccc2n1 [BO-1038, 1-{4-[Bis(2-chloroethyl)amino]phenyl}-3-(2-methyl-quinolin-4-yl)urea]
CCRF-CEM/Taxol
  fold of cross-resistant, CCRF-CEM/Taxol vs IC50 of parent cell line: 2.2 x
MX-1 cells; 10 μM
  time to half-maximal inhibition of biosynthesis: 15 to 30 min
  degrees of inhibiting biosynthesis of DNA and RNA, maximized: 50-80%
  persistence of inhibition of biosynthesis: 6 to 24 h
[3]; [7]
  IC50: 1240 nM
[2]
  Tumor remission achieved: complete tumor remission
  log cell kill: > 4.1
  Duration complete remission maintained without relapse: over 70 days

## Cc1cccc2c(Nc3cc(CO)cc(NC(=O)Nc4ccc(N(CCCl)CCCl)cc4)c3)c3ccccc3nc12 [BO-1050, 1-{4-[bis(2-chloroethyl)amino]phenyl}-3-[3-hydroxymethyl-5-(4-methylacridin-9-ylamino)phenyl]urea]
[4]; [8]
  IC50: 128 nM
[1]; [6]
  IC50: 30 nM
CCRF-CEM/Taxol
  fold of cross-resistant, CCRF-CEM/Taxol vs IC50 of parent cell line: 12.8 x
[2]
  Tumor remission achieved: CR in parts of the mice
  log cell kill: > 4.1
  Duration complete remission maintained without relapse: over 70 days

## Cc1ccc(Nc2c3ccccc3nc3c(C)cccc23)cc1NC(=O)Nc1ccc(N(CCCl)CCCl)cc1 [BO-1051]
[4]; [8]
  IC50: 174 nM
[1]; [6]
  IC50: 74 nM
MX-1 cells; 10 μM
  delay in reaching maximal effect on DNA and RNA biosynthesis: about 1 hr
  time to half-maximal inhibition of biosynthesis: 15 to 30 min
  degrees of inhibiting biosynthesis of DNA and RNA, maximized: 50-80%
  persistence of inhibition of biosynthesis: 6 to 24 h
MX-1 cells; Homo sapiens, MX1, 0.5 h, after initial activation within the first 30 min, read-out: protein synthesis: moderate inhibition following initial activation
  inhibition at 10 µM: ~20%
[5]; 100 mg/kg, Q2D×5, i.v.-injection, n=3
  tumor-growth suppression: complete tumor-growth suppression
[5]; 100 mg/kg, Q2D×5, n=3, one cycle, observed 10 and 12 days after last dose on Day 16
  tumor size as % of original tumor size: 18%
[5]; BO-1049 150, BO-1051 100, BO-1055 30 mg/kg vs cyclophosphamide 80 mg/kg, all Q2D×5, parallel study
  therapeutic effect compared with cyclophosphamide: superior therapeutic effects than cyclophosphamide
[2]
  Tumor remission achieved: complete tumor remission
  log cell kill: > 4.1
  Duration complete remission maintained without relapse: over 70 days

## Cc1ccc(NC(=O)Nc2ccc(N(CCCl)CCCl)cc2)cc1Nc1c2cccc(C)c2nc2c(C(=O)NCCN(C)C)cccc12 [BO-1053, 9-[5-(3-{4-[Bis(2-chloroethyl)amino]phenyl}ureido)-2-methylphenylamino]-5-methylacridine-4-carboxylic acid (2-dimethylaminoethyl)amide]
[1]; [9]
  IC50: 12 nM
CCRF-CEM/Taxol
  fold of cross-resistant, CCRF-CEM/Taxol vs IC50 of parent cell line: 15.3 x
[2]; 70 mg/kg, Q2D × 5, i.v.
  Remark (tolerability of dose): Too high dose
[2]
  Tumor remission achieved: complete tumor remission

## CCOC(=O)Nc1cc(COC(=O)Nc2ccc(N(CCCl)CCCl)cc2)cc(Nc2c3ccccc3nc3ccccc23)c1 [BO-1054, (3-(Acridin-9-ylamino)-5-{4-[bis(2-chloroethyl)amino]phenylcarbamoyloxymethyl}-phenyl)carbamic acid ethyl ester]
[4]; read-out: IC50 MX-1, SRB assay, 72-hr incubation
  IC50: 605 nM
[1]; [9]
  IC50: 84 nM
[3]; read-out: IC50 HCT-116, SRB assay, 72-hr incubation
  IC50: 757 nM

## O=C(Nc1cc(CO)cc(Nc2c3ccccc3nc3ccccc23)c1)Oc1ccc(N(CCCl)CCCl)cc1 [BO-1062, [3-(Acridin-9-ylamino)-5-hydroxymethylphenyl]carbamic acid 4-[bis(2-chloro-ethyl)amino]phenyl ester]
[1]; [6]
  IC50: 57 nM
CCRF-CEM/Taxol
  IC50: 112 nM
  fold of cross-resistant, CCRF-CEM/Taxol vs IC50 of parent cell line: 2.0 x
[2]
  Tumor remission achieved: complete tumor remission

## Cc1cccc2c(Nc3cc(CO)cc(NC(=O)Oc4ccc(N(CCCl)CCCl)cc4)c3)c3ccccc3nc12 [BO-1063, [3-Hydroxymethyl-5-(4-methylacridin-9-ylamino)phenyl]carbamic acid 4-[bis(2-chloroethyl)amino]phenyl ester]
[1]; [6]
  IC50: 75 nM
CCRF-CEM/Taxol
  IC50: 81 nM
  fold of cross-resistant, CCRF-CEM/Taxol vs IC50 of parent cell line: 1.1 x
[2]; 100 mg/kg, QD × 3, i.v.
  Remark (tolerability of dose): Too high dose

## Cc1ccc(Nc2c3ccccc3nc3c(C)cccc23)cc1NC(=O)Oc1ccc(N(CCCl)CCCl)cc1 [BO-1064, [2-Methyl-5-(4-methylacridin-9-ylamino)phenyl]carbamic acid 4-[bis(2-chloro-ethyl)amino]phenyl ester]
[1]; [6]
  IC50: 116 nM
CCRF-CEM/Taxol
  fold of cross-resistant, CCRF-CEM/Taxol vs IC50 of parent cell line: 1.4 x
[2]
  Tumor remission achieved: complete tumor remission

## CCOC(=O)Nc1cc(COC(=O)Oc2ccc(N(CCCl)CCCl)cc2)cc(Nc2c3ccccc3nc3ccccc23)c1 [BO-1065, Carbonic acid 3-(acridin-9-ylamino)-5-ethoxycarbonylaminobenzyl ester 4-[bis(2-chloroethyl)amino]phenyl ester]
[2]; 100 mg/kg, QD × 3, i.v.
  Remark (tolerability of dose): Too high dose

## COc1cc(NC(=O)Oc2ccc(N(CCCl)CCCl)cc2)cc(Nc2c3ccccc3nc3ccccc23)c1 [BO-1066, [3-(Acridin-9-ylamino)-5-methoxyphenyl]carbamic acid 4-[bis(2-chloroethyl)-amino]phenyl ester]
CCRF-CEM/Taxol
  fold of cross-resistant, CCRF-CEM/Taxol vs IC50 of parent cell line: 1.5 x
[2]
  Tumor remission achieved: complete tumor remission

## CC(=O)O[C@H]1C(=O)[C@@]2(C)[C@H]([C@H](OC(=O)c3ccccc3)[C@]3(O)C[C@H](OC(=O)[C@H](O)[C@@H](NC(=O)c4ccccc4)c4ccccc4)C(C)=C1C3(C)C)[C@]1(OC(C)=O)CO[C@@H]1C[C@@H]2O [Taxol, reference compound]
[4]; [8]
  IC50: 35 ± 14 nM
[1]; [6]
  IC50: 1.3 ± 0.1 nM
CCRF-CEM/Taxol
  fold of cross-resistant, CCRF-CEM/Taxol vs IC50 of parent cell line: 330 x
[3]; [7]
  IC50: 1.3 ± 0.2 nM

## CC[C@]1(O)C[C@@H]2CN(CCc3c([nH]c4ccccc34)[C@@](C(=O)OC)(c3cc4c(cc3OC)N(C)[C@H]3[C@@](O)(C(=O)OC)[C@H](OC(C)=O)[C@]5(CC)C=CCN6CC[C@]43[C@@H]65)C2)C1 [Vinblastine, reference compound]
[4]; [8]
  IC50: 2.9 ± 0.5 nM
[1]; [6]
  IC50: 0.73 ± 0.09 nM
CCRF-CEM/Taxol
  fold of cross-resistant, CCRF-CEM/Taxol vs IC50 of parent cell line: 106.2 x
[3]; [7]
  IC50: 1.8 ± 0.4 nM

Reference: patent US8222297B2, “Aniline or phenol mustards linked to DNA-affinic molecules or water-soluble aromatic rings and their use as cancer therapeutic agents” (Academia Sinica, priority 2007, dated 2012)
